According to patent US5631401A, “Inhibitors of protein farnesyltransferase and squalene synthase” (Abbott Laboratories, priority 1995, dated 1997):

Tests used:
[1] = biological target: T1, Rat brain protein farnesyltransferase (Rattus norvegicus, UniProt Q02293+Q04631); assay: In vitro inhibition of protein farnesyltransferase (biotin-lamin substrate, scintillation proximity assay); format: biochemical; conditions: for inhibition at 1 µM: 1 μM (footnote *), read-out: % Inhibition at 1 μM (protein farnesyltransferase, values marked *); for inhibition at 10 µM: compared to uninhibited control
T1 construct: The enzyme was purified according to Reiss, Y., et al., Cell, 62: 81-88 (1990), utilizing steps one through three; from tissue; host or cells: rat brain
Method in brief: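 Protein farnesyltransferase isolated from rat brain was purified following steps one through three of the Reiss et al. method, giving a specific activity of about 10 nmol substrate farnesylated/mg enzyme/hour. Activity was measured with a commercial Amersham scintillation proximity assay kit, using biotin-lamin as the acceptor substrate and radioactive farnesyl diphosphate as the donor.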

[2] = biological target: T2, Rat liver microsomal squalene synthase (Rattus norvegicus, UniProt Q02769); assay: In vitro inhibition of squalene synthase (rat liver microsomes, 3H-farnesyl diphosphate); format: biochemical; conditions: 1 μM; compared to controls with no test compound
T2 construct: Rat liver microsomes, the source of enzyme, were prepared; from tissue; host or cells: rat liver microsomes
T2 sequence (Q02769 1-416): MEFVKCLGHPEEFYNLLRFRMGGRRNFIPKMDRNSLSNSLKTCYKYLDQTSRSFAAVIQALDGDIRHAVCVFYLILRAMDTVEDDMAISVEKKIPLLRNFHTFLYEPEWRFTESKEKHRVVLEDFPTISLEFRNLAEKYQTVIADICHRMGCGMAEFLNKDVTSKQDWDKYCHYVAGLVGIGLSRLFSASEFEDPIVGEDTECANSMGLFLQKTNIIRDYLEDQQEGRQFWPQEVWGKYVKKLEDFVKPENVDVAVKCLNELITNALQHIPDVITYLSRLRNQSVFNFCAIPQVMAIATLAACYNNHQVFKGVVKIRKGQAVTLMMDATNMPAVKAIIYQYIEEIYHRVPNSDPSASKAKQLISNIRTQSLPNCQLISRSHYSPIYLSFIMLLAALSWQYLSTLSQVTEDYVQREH
Protocol: In vitro inhibition of squalene synthase may be measured by the following procedure.
Rat liver microsomal squalene synthase activity was measured using radioactive farnesyl diphosphate as a substrate and quantitating squalene synthesis by counting the radioactive squalene formed.
Rat liver microsomes, the source of enzyme, were prepared according to the method of Gillies, P. J., et al., Exp. Molec. Pathol. 44: 329-339 (1986), a modification of the procedure of Erickson, S. K., and Cooper, A. D., Metabolism, 29: 991-996 (1980). Approximately 30 μg of microsomal protein was incubated for 10 minutes at 37° C. with 11 μM of ^3 H-farnesyl diphosphate, 49 mCi/mmol, and test compound in the presence of squalene (2 μL), Mg^++, KF, reduced B-nicotinamide adenine dinucleotide phosphate, dithiothreitol, and K2 PO4, pH 7.35, in a total volume of 200 μL. Oxygen was excluded from the closed incubation tube by degassing with nitrogen. The reaction was terminated by the addition of ethanolic KOH and after degassing with N2, the microsomal membranes were solubilized by heating at 60° C. for 30 minutes. The squalene was extracted into hexane, and the squalene was separated from all other radioactive molecules by passage over an activated alumina column. The solution was collected in scintillation vials, evaporated to dryness, liquid scintillation fluid was added, and the radioactivity was determined in a liquid scintillation counter. […]

Compound	inhibition at 1 µM [1] [%]	inhibition at 1 µM [2] [%]	inhibition at 10 µM [1] [%]
C[C@@H](c1ccccc1)N(Cc1ccc(Oc2ccccc2)cc1)C(=O)[C@H]1[C@H](C(=O)O)[C@H](C(=O)N(Cc2ccc(Oc3ccccc3)cc2)[C@@H](C)c2ccccc2)[C@H]1C(=O)O [Example 87, (1α,2β,3β,4α)-1,3-Di[N-(S)-α-Methylbenzyl-N-(4-phenoxybenzyl)aminocarbonyl]cyclobutane-2,4-dicarboxylic acid]	–	76	86
O=C(O)[C@H]1[C@H](C(=O)N(Cc2ccc(Oc3ccccc3)cc2)CC2CCCCC2)[C@H](C(=O)O)[C@H]1C(=O)N(Cc1ccc(Oc2ccccc2)cc1)CC1CCCCC1 [Example 91]	–	41	36
O=C(O)[C@H]1[C@H](C(=O)N(Cc2ccc(Oc3ccccc3)cc2)CC2CC2)[C@H](C(=O)O)[C@H]1C(=O)N(Cc1ccc(Oc2ccccc2)cc1)CC1CC1 [Example 93, (1α,2β,3β,4α)-1,3-Di[N-Cyclopropylmethyl-N-(4-phenoxybenzyl)aminocarbonyl]cyclobutane-2,4-dicarboxylic acid]	–	52	74
O=C(O)[C@H]1[C@H](C(=O)N(Cc2ccc(Oc3ccccc3)cc2)C2CCCC2)[C@H](C(=O)O)[C@H]1C(=O)N(Cc1ccc(Oc2ccccc2)cc1)C1CCCC1 [Example 97, (1α,2β,3β,4α)-1,3-Di[N-cyclopentyl-N-(4-phenoxybenzyl)aminocarbonyl]cyclobutane-2,4-dicarboxylic acid]	–	49	32
O=C(O)[C@H]1[C@H](C(=O)N(Cc2ccc(Oc3ccccc3)cc2)C2CCCCC2)[C@H](C(=O)O)[C@H]1C(=O)N(Cc1ccc(Oc2ccccc2)cc1)C1CCCCC1 [Example 98, (1α,2β,3β,4α)-1,3-Di[N-cyclohexyl-N-(4-phenoxybenzyl)aminocarbonyl]cyclobutane-2,4-dicarboxylic acid]	–	55	31
O=C(O)[C@H]1[C@H](C(=O)N(Cc2ccc(Oc3ccccc3)cc2)C2CCC2)[C@H](C(=O)O)[C@H]1C(=O)N(Cc1ccc(Oc2ccccc2)cc1)C1CCC1 [Example 99, (1α,2β,3β,4α)-1,3-Di[N-cyclobutyl-N-(4-phenoxybenzyl)aminocarbonyl]cyclobutane-2,4-dicarboxylic acid]	–	20	52
O=C(O)[C@H]1[C@H](C(=O)N(Cc2ccc(Oc3ccccc3)cc2)CC2CCC2)[C@H](C(=O)O)[C@H]1C(=O)N(Cc1ccc(Oc2ccccc2)cc1)CC1CCC1 [Example 100, (1α,2β,3β,4α)-1,3-Di[N-cyclobutylmethyl-N-(4-phenoxybenzyl)aminocarbonyl]cyclobutane-2,4-dicarboxylic acid]	21	46	–
O=C(O)[C@H]1[C@H](C(=O)N(Cc2ccc(Oc3ccccc3)cc2)CC2CCCC2)[C@H](C(=O)O)[C@H]1C(=O)N(Cc1ccc(Oc2ccccc2)cc1)CC1CCCC1 [Example 101, (1α,2β,3β,4α)-1,3-Di[N-cyclopentylmethyl-N-(4-phenoxybenzyl)aminocarbonyl]cyclobutane-2,4-dicarboxylic acid]	26	34	–
CC[C@@H](C)N(Cc1ccc(Oc2ccccc2)cc1)C(=O)[C@H]1[C@H](C(=O)O)[C@H](C(=O)N(Cc2ccc(Oc3ccccc3)cc2)[C@H](C)CC)[C@H]1C(=O)O [Example 102, (1α,2β,3β,4α)-1,3-Di[N-((2R)-Sec-butyl)-N-(4-phenoxybenzyl)aminocarbonyl]cyclobutane-2,4-dicarboxylic acid]	–	48	37

The next lines start with the values.

inhibition at 1 µM [1] [%]	inhibition at 1 µM [2] [%]	inhibition at 10 µM [1] [%]	Compound
92	24	–	O=C(O)[C@H]1[C@H](C(=O)N(Cc2ccc(Oc3ccccc3)cc2)Cc2cccs2)[C@H](C(=O)O)[C@H]1C(=O)N(Cc1ccc(Oc2ccccc2)cc1)Cc1cccs1 [Example 73, (1α,2β,3β,4α)-1,3-Di[N-(thien-2-ylmethyl)-N-(4-phenoxybenzyl)aminocarbonyl]cyclobutane-2,4-dicarboxylic acid]
–	23	66	COc1cccc(CCN(Cc2ccc(Oc3ccccc3)cc2)C(=O)[C@H]2[C@H](C(=O)O)[C@H](C(=O)N(CCc3cccc(OC)c3)Cc3ccc(Oc4ccccc4)cc3)[C@H]2C(=O)O)c1 [Example 76, (1α,2β,3β,4α)-1,3-Di[N-(4-phenoxybenzyl)-N-(3-methoxyphenethyl)aminocarbonyl]cyclobutane-2,4-dicarboxylic acid]
–	23	48	COc1ccc(CCN(Cc2ccc(Oc3ccccc3)cc2)C(=O)[C@H]2[C@H](C(=O)O)[C@H](C(=O)N(CCc3ccc(OC)c(OC)c3)Cc3ccc(Oc4ccccc4)cc3)[C@H]2C(=O)O)cc1OC [Example 77, (1α,2β,3β,4α)-1,3-Di [N-(4-phenoxybenzyl)-N-(3,4-dimethoxyphenethyl)aminocarbonyl]cyclobutane-2,4-dicarboxylic acid]
–	32	83	O=C(O)[C@H]1[C@H](C(=O)N(CCc2ccccc2)Cc2ccc(Oc3ccccc3)cc2)[C@H](C(=O)O)[C@H]1C(=O)N(CCc1ccccc1)Cc1ccc(Oc2ccccc2)cc1 [Example 78, (1α,2β,3β,4α)-1,3-Di [N-(4-phenoxybenzyl)-N-phenethylaminocarbonyl]cyclobutane-2,4-dicarboxylicacid]
–	54	43	O=C(O)[C@H]1[C@H](C(=O)N(CCCc2ccccc2)Cc2ccc(Oc3ccccc3)cc2)[C@H](C(=O)O)[C@H]1C(=O)N(CCCc1ccccc1)Cc1ccc(Oc2ccccc2)cc1 [Example 79, (1α,2β,3β,4α)-1,3-Di [N-(4-phenoxybenzyl)-N-(3-phenyl-1-propyl)aminocarbonyl]cyclobutane-2,4-dicarboxylic acid]
–	42	51	O=C(O)[C@H]1[C@H](C(=O)N(CCCCc2ccccc2)Cc2ccc(Oc3ccccc3)cc2)[C@H](C(=O)O)[C@H]1C(=O)N(CCCCc1ccccc1)Cc1ccc(Oc2ccccc2)cc1 [Example 80, (1α,2β,3β,4α)-1,3-Di [N-(4-phenoxybenzyl)-N-(4-phenyl-1-butyl)aminocarbonyl]cyclobutane-2,4-dicarboxylic acid]
–	47	50	COc1ccc(CN(Cc2ccc(Oc3ccccc3)cc2)C(=O)[C@H]2[C@H](C(=O)O)[C@H](C(=O)N(Cc3ccc(OC)cc3)Cc3ccc(Oc4ccccc4)cc3)[C@H]2C(=O)O)cc1 [Example 89]
–	20	99	O=C(O)[C@H]1[C@H](C(=O)N(Cc2ccc(F)cc2)Cc2ccc(Oc3ccccc3)cc2)[C@H](C(=O)O)[C@H]1C(=O)N(Cc1ccc(F)cc1)Cc1ccc(Oc2ccccc2)cc1 [Example 94, (1α,2β,3β,4α)-1,3-Di[N-(4-fluorobenzyl)-N-(4-phenoxybenzyl)aminocarbonyl]cyclobutane-2,4-dicarboxylic acid]
